Reference: ChEMBL document CHEMBL4257485, “The critical role of novel benzophenone analogs on tumor growth inhibition targeting angiogenesis and apoptosis” (Medchemcomm, 2018)
Calls of active or inactive are those of the source. The calls are words filed in the database; no cut-off is given here.

What was measured:
A549 [1] = test: Cytotoxicity against human A549 cells after 48 hrs by trypan blue exclusion assay; type: functional, cell-based; settings: A549, 48 h
HeLa [2] = test: Cytotoxicity against human HeLa cells after 48 hrs by MTT assay; type: functional, cell-based
NIH3T3 [3] = test: Cytotoxicity against mouse NIH/3T3 cells after 48 hrs by trypan blue exclusion assay; type: cell-based; settings: NIH3T3, 48 h
A549 [4] = test: Cytotoxicity against human A549 cells after 48 hrs by MTT assay; type: functional, cell-based; settings: A549, 48 h
HeLa [5] = test: Cytotoxicity against human HeLa cells after 48 hrs by LDH release assay; type: functional, cell-based
NIH3T3 [6] = test: Cytotoxicity against mouse NIH/3T3 cells after 48 hrs by LDH release assay; type: cell-based; settings: NIH3T3, 48 h
MCF7 [7] = test: Cytotoxicity against human MCF7 cells after 48 hrs by trypan blue exclusion assay; type: functional, cell-based; settings: MCF7, 48 h
A549 [8] = test: Cytotoxicity against human A549 cells after 48 hrs by LDH release assay; type: functional, cell-based; settings: A549, 48 h
HeLa [9] = test: Cytotoxicity against human HeLa cells after 48 hrs by trypan blue exclusion assay; type: functional, cell-based
MCF7 [10] = test: Cytotoxicity against human MCF7 cells after 48 hrs by LDH release assay; type: functional, cell-based; settings: MCF7, 48 h
MCF7 [11] = test: Cytotoxicity against human MCF7 cells after 48 hrs by MTT assay; type: functional, cell-based; settings: MCF7, 48 h
NIH3T3 [12] = test: Cytotoxicity against mouse NIH/3T3 cells after 48 hrs by MTT assay; type: cell-based; settings: NIH3T3, 48 h
A549 [13] = test: Induction of apoptosis in human A549 cells assessed as formation of apoptotic bodies after 12 to 15 hrs by flow cytometric method; type: functional, cell-based
A549 [14] = test: Induction of apoptosis in human A549 cells assessed a necrotic cells after 12 to 15 hrs by annexin-V-FITC/propidium iodide staining-based flow cytometric method (reference value: 10.2%); type: functional
A549 [15] = test: Induction of apoptosis in human A549 cells assessed as cell condensation after 12 to 15 hrs by flow cytometric method; type: functional, cell-based
A549 [16] = test: Induction of apoptosis in human A549 cells assessed as live cells after 12 to 15 hrs by annexin-V-FITC/propidium iodide staining-based flow cytometric method (reference value: 73.8%); type: functional
A549 [17] = test: Cell cycle arrest in human A549 cells assessed as accumulation at G0/G1 phase after 16 hrs by propidium iodide staining-based flow cytometric method (reference value: 70.8%); type: functional
A549 [18] = test: Induction of apoptosis in human A549 cells assessed a late apoptotic cells after 12 to 15 hrs by annexin-V-FITC/propidium iodide staining-based flow cytometric method (reference value: 14.3%); type: functional
A549 [19] = test: Cell cycle arrest in human A549 cells assessed as accumulation at G2/M phase after 16 hrs by propidium iodide staining-based flow cytometric method (reference value: 3.44%); type: functional
A549 [20] = test: Cell cycle arrest in human A549 cells assessed as accumulation at S phase after 16 hrs by propidium iodide staining-based flow cytometric method (reference value: 24.8%); type: functional
A549 [21] = test: Induction of apoptosis in human A549 cells assessed as early apoptotic cells after 12 to 15 hrs by annexin-V-FITC/propidium iodide staining-based flow cytometric method (reference value: 1.65%); type: functional
A549 [22] = test: Cell cycle arrest in human A549 cells assessed as accumulation at sub-G1 phase after 16 hrs by propidium iodide staining-based flow cytometric method (reference value: 0.69%); type: functional

Row | Compound | IC50 (A549 [1]) | IC50 (HeLa [2]) | IC50 (NIH3T3 [3]) | IC50 (A549 [4]) | IC50 (HeLa [5]) | IC50 (NIH3T3 [6]) | IC50 (MCF7 [7]) | IC50 (A549 [8]) | IC50 (HeLa [9]) | IC50 (MCF7 [10]) | IC50 (MCF7 [11]) | IC50 (NIH3T3 [12]) | further results
1 | O=C(COc1c(F)cc(C(=O)c2ccc(Cl)cc2)cc1Cl)NNC(=O)c1ccc(=O)oc1 | 86.7 µM | 87.1 µM | 79.3 µM | 88.8 µM | 85.1 µM | 78.6 µM | 90.6 µM | 84.9 µM | 89.6 µM | 83.8 µM | 86.2 µM | 77.6 µM | –
2 | O=C(COc1c(F)cc(C(=O)c2ccc(F)cc2)cc1Cl)NNC(=O)c1ccc(=O)oc1 | 56.7 µM | 59.9 µM | 85.4 µM | 58.8 µM | 60.1 µM | 89.8 µM | 62.2 µM | 60.2 µM | 59.2 µM | 61.1 µM | 63.2 µM | 87.8 µM | –
3 | CC[C@@]1(O)C(=O)OCc2c1cc1n(c2=O)Cc2cc3ccccc3nc2-1 [CAMPTOTHECIN] | – | – | – | – | – | – | – | – | – | – | – | – | Activity (A549 [13]): Active; Activity (A549 [14]): 9.12%; Activity (A549 [15]): Active; Activity (A549 [16]): 65.1%; Activity (A549 [17]): 59.4%; Activity (A549 [18]): 23.6%; Activity (A549 [19]): 2.43%; Activity (A549 [20]): 19.2%; Activity (A549 [21]): 2.16%; Activity (A549 [22]): 19%
4 | O=C(COc1ccc(C(=O)c2ccccc2)cc1)NNC(=O)c1ccc(=O)oc1 | 96.7 µM | 99.1 µM | 84.3 µM | 98.8 µM | 96.1 µM | 88.2 µM | 92.9 µM | 90.9 µM | 89.2 µM | 61.1 µM | 93.2 µM | 87.3 µM | –
